This note sets out measurements from ChEMBL document CHEMBL1799975 (J Med Chem, 2011).

Data set [1] can be described thus: Lipophilicity, log D of the compound at pH 7.4 by HPLC analysis. It is filed as physicochemical. Conditions: buffer.
A short description of data set [2]: Volume of distribution at steady state in rat at 0.1 mg/kg, iv by LC-MS-MS analysis. It counts as ADME, organism-based. Set-up: dose 0.1 mg/kg, route intravenous. Conditions: in vivo, read-out: Vdss.
Data set [3] in a line: Oral bioavailability in rat at 0.1 mg/kg by LC-MS-MS analysis. It counts as ADME, organism-based. Conditions: in vivo.
Data set [4] is described as follows: Ratio of drug level in brain to plasma of rat at 0.2 mg/kg, iv after 30 mins by LC-MS-MS analysis. Details: dose 0.2 mg/kg, route intravenous. It counts as ADME, organism-based. The note with it: read-out: BPR.
The nature of data set [5]: Drug level in rat plasma at 0.2 mg/kg, iv after 30 mins by LC-MS-MS analysis. It is filed as ADME, organism-based. Set-up: dose 0.2 mg/kg, route intravenous.
Data set [6] can be described thus: AUC in rat at 0.1 mg/kg, po by LC-MS-MS analysis. It is filed as ADME, organism-based. Set-up: dose 0.1 mg/kg, route oral. The note with it: plasma.
Data set [7] can be described thus: Drug level in rat brain at 0.2 mg/kg, iv after 15 mins by LC-MS-MS analysis. It counts as ADME, organism-based. Details: dose 0.2 mg/kg, route intravenous. The note with it: read-out: Drug uptake.
Data set [8] in a line: Drug level in rat brain at 0.2 mg/kg, iv after 30 mins by LC-MS-MS analysis. It counts as ADME, organism-based. Details: dose 0.2 mg/kg, route intravenous. The note with it: read-out: Drug uptake.
Data set [9] is described as follows: Ratio of drug level in brain to plasma of rat at 0.2 mg/kg, iv after 15 mins by LC-MS-MS analysis. Set-up: dose 0.2 mg/kg, route intravenous. Conditions: read-out: BPR. It is filed as ADME, organism-based.
The nature of data set [10]: Mean residence time in rat at 0.1 mg/kg, po by LC-MS-MS analysis. It counts as ADME, organism-based. The note with it: in vivo. Details: dose 0.1 mg/kg, route oral.
A short description of data set [11]: Cmax in rat at 0.1 mg/kg, iv by LC-MS-MS analysis. It counts as ADME, organism-based. Conditions: in vivo. Set-up: dose 0.1 mg/kg, route intravenous.
Data set [12] can be described thus: Drug level in rat plasma at 0.2 mg/kg, iv after 15 mins by LC-MS-MS analysis. It is filed as ADME, organism-based. Set-up: dose 0.2 mg/kg, route intravenous.

Turning to `CC(=O)NCCC1=C(c2ccccc2)Cc2ccc3c(c21)CCO3`, the logD – broadly, lipophilicity at a set pH, counting ionised and neutral species – in data set [1] amounted to 3.49.

Consider `CC(=O)NCCc1c(-c2ccccc2)nc2ccc3c(n12)CCO3`, for which the logD in data set [1] turned out to be 1.66.

In [1], `CC(=O)NCCn1c(-c2ccccc2)nc2ccc3c(c21)CCO3` yielded a logD of 1.39.

Compound `CC(=O)NCCc1c(-c2ccccc2)nn2ccc3c(c12)CCO3` registered a pH-dependent lipophilicity (logD) in data set [1] of 2.04.

In data set [1], `CC(=O)NCCc1c(C)nn2ccc3c(c12)CCO3` returned a logD of 1.04.

Compound `CCC(=O)NCCc1c(C)nn2ccc3c(c12)CCO3` gave a logD in [1] of 1.39.

`CCc1nn2ccc3c(c2c1CCNC(C)=O)CCO3`: in [2], the Vd worked out at 0.664 L/kg. The bioavailability (as a rule, the share of a dose that reaches the circulation, judged against a reference dose that is usually intravenous) in data set [3] is 19.7%. In addition, the Kp at 0.5 h in [4] is 0.22. The concentration at 0.5 h in data set [5] was determined as 55.9 ng/mL; in data set [8], 12.4 ng/g. In addition, the AUC – broadly, concentration integrated over time – in data set [6] is 14.4 ng·h/mL. Besides, the concentration at […] was 23.7 ng/g in [7] and 83.2 ng/mL in data set [12]. For the same compound, the Kp at […] in data set [9] turned out to be 0.28. In addition, in [10], the mean residence time (MRT) – broadly, the average time that molecules of a dose stay in the body – was found to be 57 min. Also, the peak level in data set [11] (Cmax) was 12.4 ng/mL. Besides, the logD in data set [1] is 1.48.

In [1], `CCC(=O)NCCc1c(CC)nn2ccc3c(c12)CCO3` showed a logD of 1.71.

`CC(=O)NCCc1c(C2CC2)nn2ccc3c(c12)CCO3` came in with a logD in [1] of 1.61.

Compound `CCC(=O)NCCc1c(C2CC2)nn2ccc3c(c12)CCO3` registered a pH-dependent lipophilicity (logD) in data set [1] of 1.89.

With `CC(=O)NCCc1c(C(F)(F)F)nn2ccc3c(c12)CCO3`, the logD in data set [1] was 1.64.

In data set [1], `CCC(=O)NCCc1c(C(F)(F)F)nn2ccc3c(c12)CCO3` showed a pH-dependent lipophilicity (logD) of 1.94.

As for `COc1ccc2[nH]cc(CCNC(C)=O)c2c1` [MELATONIN], the logD in data set [1] came to 0.5.
